In patent US20240067657A1, “AMIDO-SUBSTITUTED PYRIDYL COMPOUNDS AND METHODS OF USE THEREOF FOR THE TREATMENT OF HERPESVIRUSES” (Merck Sharp & Dohme LLC, priority 2020, published 2024):
Where two headings read alike, the source gives them in different places.

Tests used:
[1] = target: T1, Human cytomegalovirus DNA polymerase (Human cytomegalovirus, UniProt P08546); assay: HCMV polymerase assay (AlphaLISA, IC50); format: biochemical; conditions: polymerase assay of Example 190
T1 construct: made in house; host or cells: SF21 insect cells (baculovirus vector)
T1 sequence (P08546 whole entry): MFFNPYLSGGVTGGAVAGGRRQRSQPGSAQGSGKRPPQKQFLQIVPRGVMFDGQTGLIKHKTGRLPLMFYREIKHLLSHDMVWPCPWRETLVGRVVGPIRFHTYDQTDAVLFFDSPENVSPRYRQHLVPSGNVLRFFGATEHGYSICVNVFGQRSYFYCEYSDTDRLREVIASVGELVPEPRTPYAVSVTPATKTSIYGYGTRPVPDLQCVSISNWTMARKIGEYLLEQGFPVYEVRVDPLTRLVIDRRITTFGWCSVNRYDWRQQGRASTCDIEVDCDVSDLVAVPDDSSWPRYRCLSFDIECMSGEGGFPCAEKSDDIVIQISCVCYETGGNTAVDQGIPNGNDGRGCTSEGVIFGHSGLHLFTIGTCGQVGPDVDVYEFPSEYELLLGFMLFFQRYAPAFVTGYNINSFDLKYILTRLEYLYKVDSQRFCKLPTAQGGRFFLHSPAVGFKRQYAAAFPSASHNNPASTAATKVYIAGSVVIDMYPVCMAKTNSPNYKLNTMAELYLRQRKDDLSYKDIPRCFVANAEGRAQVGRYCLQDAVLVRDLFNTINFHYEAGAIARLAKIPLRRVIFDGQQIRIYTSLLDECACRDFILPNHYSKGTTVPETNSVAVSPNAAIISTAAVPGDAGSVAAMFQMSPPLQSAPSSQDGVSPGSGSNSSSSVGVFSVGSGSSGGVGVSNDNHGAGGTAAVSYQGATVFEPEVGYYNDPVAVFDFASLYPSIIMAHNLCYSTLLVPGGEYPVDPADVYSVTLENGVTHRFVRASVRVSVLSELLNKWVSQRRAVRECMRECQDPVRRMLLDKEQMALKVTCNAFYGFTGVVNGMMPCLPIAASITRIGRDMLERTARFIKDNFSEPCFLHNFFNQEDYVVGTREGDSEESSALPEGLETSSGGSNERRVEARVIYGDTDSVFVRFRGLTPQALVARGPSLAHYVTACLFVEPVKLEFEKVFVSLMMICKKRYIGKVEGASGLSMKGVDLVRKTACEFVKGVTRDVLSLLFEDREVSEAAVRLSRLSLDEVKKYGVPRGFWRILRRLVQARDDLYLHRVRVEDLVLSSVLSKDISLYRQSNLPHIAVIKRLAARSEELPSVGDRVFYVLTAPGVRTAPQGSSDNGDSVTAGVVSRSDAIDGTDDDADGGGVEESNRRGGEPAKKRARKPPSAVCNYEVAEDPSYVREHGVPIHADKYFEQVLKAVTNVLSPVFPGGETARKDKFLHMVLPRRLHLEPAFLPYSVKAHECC
Protocol: (§1) Human cytomegalovirus and varicella zoster virus DNA polymerases were expressed via baculovirus vector in SF21 cells and purified. Heterodimeric nucleic acid substrate used in the herpesvirus polymerase reactions was generated by annealing a 59-mer template to a 17-mer digoxigenin-labeled primer. Polymerase (HCMV final concentration of 0.2 nM; VZV final concentration of 0.4 nM) was combined with an inhibitor compound or DMSO in assay buffer (10 mM HEPES, pH 7.5, 25 mM KCl, 25 mM NaCl, 5 mM MgCl2, 5% glycerol, 0.67 mg/ml bovine serum albuminutes, and 1 mM tris(2-carboxyethyl)phosphine), and this mixture was pre-incubated for 30 minutes at room temperature in 384-well microtiter plates. The polymerization reaction was initiated by the addition of template/primer substrate (final concentration: 1.6 nM), and dNTPs (final concentration: 24 nM dCTP, 24 nMdGTP, 16 nM dATP, 16 nM dTTP, and 0.8 nM biotin-dUTP). After 60 minutes incubation at 37° C., reactions were terminated with quench buffer (25 mM HEPES pH 7.5, 100 mM NaCl, 0.25% Tween-20, 12 mM EDTA, and 1 mg/ml bovine serum albumin). Incorporation of biotinylated UTP was detected with 2.5-5 ug/ml anti-DIG AlphaLISA acceptor beads and 5-10 ug/ml streptavidin AlphaLISA donor beads (Perkin Elmer). Compound effects were normalized to the window defined by the controls (DMSO only and pre-quenched wells), and were fit using a 4-parameter algorithm to report an IC50.

[2] = target: T2, varicella zoster virus DNA polymerase (Varicella-zoster virus, UniProt P09252); assay: VZV polymerase assay (AlphaLISA, IC50); format: biochemical; conditions: polymerase assay of Example 190
T2 construct: made in house; host or cells: SF21 insect cells (baculovirus vector)
T2 sequence (P09252 whole entry): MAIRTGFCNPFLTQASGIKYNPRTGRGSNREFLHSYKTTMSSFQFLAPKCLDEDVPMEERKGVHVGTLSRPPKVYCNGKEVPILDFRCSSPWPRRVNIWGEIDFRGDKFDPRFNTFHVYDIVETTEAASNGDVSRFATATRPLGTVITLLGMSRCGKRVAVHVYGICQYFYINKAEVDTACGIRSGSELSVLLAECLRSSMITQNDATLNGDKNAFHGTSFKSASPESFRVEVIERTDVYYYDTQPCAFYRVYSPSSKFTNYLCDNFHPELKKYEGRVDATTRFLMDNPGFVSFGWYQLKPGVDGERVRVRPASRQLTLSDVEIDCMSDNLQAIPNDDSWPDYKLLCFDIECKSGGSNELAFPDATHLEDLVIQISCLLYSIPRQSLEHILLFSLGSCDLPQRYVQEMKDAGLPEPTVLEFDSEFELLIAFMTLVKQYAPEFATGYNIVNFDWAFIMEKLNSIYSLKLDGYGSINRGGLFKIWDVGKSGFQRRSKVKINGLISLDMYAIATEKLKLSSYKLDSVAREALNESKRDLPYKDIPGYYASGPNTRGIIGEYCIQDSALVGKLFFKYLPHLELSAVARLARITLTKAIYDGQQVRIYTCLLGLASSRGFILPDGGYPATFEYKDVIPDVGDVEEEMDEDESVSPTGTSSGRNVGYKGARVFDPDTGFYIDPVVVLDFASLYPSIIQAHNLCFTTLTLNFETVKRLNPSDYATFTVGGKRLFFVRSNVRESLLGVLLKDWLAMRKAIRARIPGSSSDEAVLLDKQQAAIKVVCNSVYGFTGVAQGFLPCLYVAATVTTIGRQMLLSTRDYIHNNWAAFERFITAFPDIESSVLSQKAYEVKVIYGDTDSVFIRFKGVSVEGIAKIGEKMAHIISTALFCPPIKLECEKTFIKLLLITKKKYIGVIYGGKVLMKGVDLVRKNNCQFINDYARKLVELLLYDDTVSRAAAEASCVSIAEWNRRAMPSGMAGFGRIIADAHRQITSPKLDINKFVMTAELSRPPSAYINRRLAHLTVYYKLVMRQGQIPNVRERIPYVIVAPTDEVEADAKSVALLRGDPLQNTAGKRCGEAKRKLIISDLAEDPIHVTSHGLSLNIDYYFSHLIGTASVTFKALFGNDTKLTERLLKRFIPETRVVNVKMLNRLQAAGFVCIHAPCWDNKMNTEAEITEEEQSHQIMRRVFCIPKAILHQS
Protocol: as §1

[3] = tested on: HCMV Strain AD169 in MRC-5 cells; assay: Viral qPCR assay HCMV (V0/V1, V2/V3), EC50; format: cell-based; conditions: Human betaherpesvirus 5, AD169, MRC5, viral qPCR assay of Example 191; read-out: HCMV Cell (EC50)
Protocol: (§2) Viral qPCR Assays (V0/V1)
(§3) MRC5 cells, Vero cells, and MeWo cells were obtained from ATCC and were maintained at 37° C./5% CO2/90% relative humidity in Minimal Essential Medium with 10% fetal bovine serum, […] L-glutamine, 100 units/ml penicillin and 100 ug/ml streptomycin. Assay plates were prepared by dispensing compounds dissolved in DMSO into wells of 384 well collagen-coated plates using an ECHO acoustic dispenser. Each compound was tested in a 10-point, serial 3-fold dilution. Controls included uninfected cells and infected cells treated only with DMSO. Assays were initiated by mixing selected cells, in suspension, with virus, and dispensing 50 μl/well infected cells to pre-plated compounds. Plates were incubated at 37° C./5% CO2/90% relative humidity for ˜72 hrs to permit genomic replication, and infected cells were lysed by the addition of an equal volume of lysis buffer (10 mM Tris-HCl, pH8, 50 mM KCl, 2 mM MgCl2, 0.45% NP-40, 0.45% Tween-20, and 100 μg/ml proteinase K). An aliquot of the lysate was transferred to a 384-well PCR plate and incubated at 56° C. for 1 hour and then at 95° C. for 10 min. Levels of a viral gene and of the cellular control, PPIA (Thermo Fisher Assay ID=Hs04194521_s1), were measured in separate 10 μL qPCR assays using TaqMan® Gene Expression Master Mix (Applied Biosystems), and an 7900HT Fast Real-Time PCR System with 384-Well Block Module. 7-point, serial 10-fold dilutions of a plasmid standard were run on each plate to generate a standard curve, and genome copies numbers were calculated by plotting experimental Ct onto linear regression of the standard curve. Viral genome copy numbers were normalized by cellular control copy number, and compound effects were normalized to the window defined by the controls. Calculated % effects were fit using a 4-parameter algorithm, and EC50 was reported.
(§4) Viral qPCR Assays (V2/V3)
as §3, with “gene” for “gene and of the cellular control, PPIA (Thermo Fisher Assay ID=Hs04194521_s1),”, “in” for “in separate”, “Compound effects on viral” for “Viral”, “number” for “numbers were normalized by cellular control copy number, and compound effects”, “reported. • HCMV: Strain AD169 Street was assayed in MRC-5 cells and was used at 0.05-0.1 pfu/cell. The assays were performed in either growth media or in the same media with 50% fetal bovine serum. Primer-probe set was Thermo Fisher Assay ID=AIFATFK. • VZV: Strain Street was maintained as an infected cell stock in MRC-5 cells. It was assayed in MeWo or MRC5 cells and was used at 0.04-0.1 pfu/cell. […]” for “reported.”

[4] = tested on: HSV-1 Strain F in Vero or MRC5 cells; assay: Viral qPCR assay HSV-1 (V0/V1, V2/V3), EC50; format: cell-based; conditions: 10%
Protocol: as §2, §3, §4
as §3, with “gene” for “gene and of the cellular control, PPIA (Thermo Fisher Assay ID=Hs04194521_s1),”, “in” for “in separate”, “Compound effects on viral” for “Viral”, “number” for “numbers were normalized by cellular control copy number, and compound effects”, “reported. • HCMV: Strain AD169 Street was assayed in MRC-5 cells and was used at 0.05-0.1 pfu/cell. The assays were performed in either growth media or in the same media with 50% fetal bovine serum. Primer-probe set was Thermo Fisher Assay ID=AIFATFK. • VZV: Strain Street was maintained as an infected cell stock in MRC-5 cells. It was assayed in MeWo or MRC5 cells and was used at 0.04-0.1 pfu/cell. […]” for “reported.”

[5] = tested on: VZV in MeWo or MRC5 cells; assay: Viral qPCR assay VZV (V0/V1, V2/V3), EC50; format: cell-based; conditions: Human alphaherpesvirus 3, MRC5, MRC5 cells, 10%; read-out: VZV Cell (EC50) MRC5 10%
Protocol: as §2, §3, §4
as §3, with “gene” for “gene and of the cellular control, PPIA (Thermo Fisher Assay ID=Hs04194521_s1),”, “in” for “in separate”, “Compound effects on viral” for “Viral”, “number” for “numbers were normalized by cellular control copy number, and compound effects”, “reported. • HCMV: Strain AD169 Street was assayed in MRC-5 cells and was used at 0.05-0.1 pfu/cell. The assays were performed in either growth media or in the same media with 50% fetal bovine serum. Primer-probe set was Thermo Fisher Assay ID=AIFATFK. • VZV: Strain Street was maintained as an infected cell stock in MRC-5 cells. It was assayed in MeWo or MRC5 cells and was used at 0.04-0.1 pfu/cell. […]” for “reported.”

[6] = Human alphaherpesvirus 1, Vero, VERO cells, read-out: HSV1 Cell (EC50) VERO 10%
[7] = Human alphaherpesvirus 1, MRC5, MRC5 cells, read-out: HSV1 Cell (EC50) MRC5 10%

| SMILES | IC50 [1] [nM] | IC50 [2] [nM] | EC50 [3] [nM] | EC50 [4, 6] [nM] | EC50 [5] [nM] | EC50 [4, 7] [nM] |
| --- | --- | --- | --- | --- | --- | --- |
| CC(=O)N1CCC(Oc2cc(C(=O)NCc3ccc(Cl)cc3)ncc2C#Cc2cc(C)ccn2)CC1 [Compound 76] | 209 | 165 | 1230 | 624 | – | – |
| CC(=O)N1CCC(Oc2cc(C(=O)NCc3ccc(Cl)cc3)ncc2/C=C/CO)CC1 [Compound 73] | 93.2 | 45 | 1780 | 842 | – | – |
| COC/C=C/c1cnc(C(=O)NCc2ccc(Cl)cc2)cc1OC1CCN(C(C)=O)CC1 [Compound 74] | 83 | 35 | 1440 | 280 | – | – |
| O=C(NCc1ccc(Cl)cc1)c1cc(O[C@H]2CCN3C(=O)OC[C@@H]3C2)c(-c2ncco2)cn1 [Compound 4] | 59.1 | 20.3 | 292 | 210 | – | – |
| CC(=O)N1CCC(Oc2cc(C(=O)NCc3ccc(Cl)cc3)ncc2-c2cncs2)CC1 [Compound 51] | 48.5 | – | 369 | – | 170 | 164 |
| CC(=O)N1CCC(Oc2cc(C(=O)NCc3ccc(Cl)cc3)ncc2-c2ccn(CS(C)(=O)=O)n2)CC1 [Compound 56] | 68.8 | – | 687 | – | 1430 | 847 |
| Cc1cc(-c2cnc(C(=O)NCc3ccc(Cl)cc3)cc2O[C@H]2CCN3C(=O)OC[C@@H]3C2)sn1 [Compound 23] | 1.16 | – | 102 | – | 59.6 | 25.7 |
| CC(=O)N1CCC(Oc2cc(C(=O)NCc3ccc(Cl)cc3)ncc2-c2cn(C)cn2)CC1 [Compound 50] | 37.3 | – | 461 | – | 243 | 181 |
| O=C(NCc1ccc(Br)cc1)c1cc(O[C@H]2CCN3C(=O)OC[C@@H]3C2)c(-c2cnn(C(F)F)c2)cn1 [Compound 83] | 12 | – | 549 | – | 147 | 274 |
| C#Cc1ccc(CNC(=O)c2cc(O[C@H]3CCN4C(=O)OC[C@@H]4C3)c(-c3cnn(C(F)F)c3)cn2)cc1 [Compound 88] | 184 | – | 616 | – | 1180 | 785 |
| CC(=O)N1CCC(Oc2cc(C(=O)NCc3ccc(Cl)cc3)ncc2-c2cnn(C)n2)CC1 [Compound 7] | 122 | – | 552 | – | 707 | 530 |
| O=C(NCc1ccc(Cl)cc1Cl)c1cc(O[C@H]2CCN3C(=O)OC[C@@H]3C2)c(-c2cnn(C(F)F)c2)cn1 [Compound 85] | 65.3 | – | 888 | – | 4710 | 1640 |
| O=C(NCc1ccc(Cl)c(F)c1F)c1cc(O[C@H]2CCN3C(=O)OC[C@@H]3C2)c(-c2cnn(C(F)F)c2)cn1 [Compound 92] | 10.3 | – | 227 | – | 339 | 200 |

More lines, main results first:

| IC50 [1] [nM] | IC50 [2] [nM] | SMILES | EC50 [3] [nM] | EC50 [4, 6] [nM] | EC50 [5] [nM] | EC50 [4, 7] [nM] |
| --- | --- | --- | --- | --- | --- | --- |
| 983 | 426 | Cn1cc(-c2cnc(C(=O)N3CCCC3c3ccc(Cl)cc3)cc2O[C@H]2CCN3C(=O)OC[C@@H]3C2)cn1 (stereo partly shown) [Compound 100] | – | – | – | – |
| 20.1 | 8.04 | O=C(NCc1ccc(Cl)cc1)c1cc(O[C@H]2CCN3C(=O)OC[C@@H]3C2)c(O)cn1 [Compound 146] | 1140 | 6220 | – | – |
| 2020 | 1300 | CC(=O)N1CCC(Oc2cc(C)nc(C(=O)NCc3ccc(Cl)cc3)c2)CC1 [Compound 101] | – | – | – | – |
| 894 | – | CN1CCC(N2CCC(C(=O)OCN(Cc3ccc(Cl)cc3)C(=O)c3cc(O[C@H]4CCN5C(=O)OC[C@@H]5C4)c(-c4cnn(C(F)F)c4)cn3)CC2)CC1 [Compound 184] | 519 | – | 314 | 173 |
| 45.6 | 27.9 | O=C(NCc1ccc(Cl)cc1)c1cc(O[C@H]2CCN3C(=O)OC[C@@H]3C2)c(CO)cn1 [Compound 98] | 509 | 1520 | – | – |
| 169 | – | N#Cc1cc(O[C@H]2CCN3C(=O)OC[C@@H]3C2)cc(C(=O)NCc2ccc(Cl)cc2)n1 [Compound 128] | 1780 | – | 5340 | 8330 |
| 12.3 | – | CN1CCN(c2cc(C(=O)NCc3ccc(Cl)cc3)ncc2C#N)[C@H](CF)C1 [Compound 173] | 279 | – | 682 | 833 |
| 25.2 | – | CC(C)[C@H](N)C(=O)OCN(Cc1ccc(Cl)cc1)C(=O)c1cc(O[C@H]2CCN3C(=O)OC[C@@H]3C2)c(-c2cnn(C(F)F)c2)cn1 [Compound 185] | 126 | – | 263 | 152 |
| 227 | – | O=C(OCN(Cc1ccc(Cl)cc1)C(=O)c1cc(O[C@H]2CCN3C(=O)OC[C@@H]3C2)c(-c2cnn(C(F)F)c2)cn1)C1CCOCC1 [Compound 182] | 148 | – | 213 | 105 |
| 66.2 | – | CC(=O)N1CCC(Oc2cc(C(=O)NCc3ccc(Cl)cc3)ncc2-c2nnc(C)o2)CC1 [Compound 153] | 478 | – | 913 | 636 |
| 84.8 | – | O=C(NCc1ccc(Cl)cc1)c1cc(O[C@H]2CCN3C(=O)OC[C@@H]3C2)c(N2CCOCC2)cn1 [Compound 116] | 791 | – | 3600 | 2420 |
| 1.89 | – | O=C(NCc1ccc(Cl)cc1)c1cc(O[C@H]2CCN3C(=O)OC[C@@H]3C2)c(-c2cnc(CO)o2)cn1 [Compound 148b] | 102 | – | 220 | 116 |
| 172 | – | C[C@@H]1CN(c2cnc(C(=O)NCc3ccc(Cl)cc3)cc2O[C@H]2CCN3C(=O)OC[C@@H]3C2)C[C@H](C)[C@]1(C)O [Compound 124] | 1270 | – | 6050 | 2850 |
